Measurements from patent US9938273B2 (Plexxikon Inc., priority 2015, dated 2018).

Assays:
FLT3-ITD = molecular target: T1, FLT3-ITD (Homo sapiens, UniProt P36888); assay: AlphaScreen kinase assay with recombinant enzyme, FLT3-ITD; format: biochemical; conditions: 8pt; read-out: FLT3_ITD 8pt: IC50
T1 sequence (P36888 1-993): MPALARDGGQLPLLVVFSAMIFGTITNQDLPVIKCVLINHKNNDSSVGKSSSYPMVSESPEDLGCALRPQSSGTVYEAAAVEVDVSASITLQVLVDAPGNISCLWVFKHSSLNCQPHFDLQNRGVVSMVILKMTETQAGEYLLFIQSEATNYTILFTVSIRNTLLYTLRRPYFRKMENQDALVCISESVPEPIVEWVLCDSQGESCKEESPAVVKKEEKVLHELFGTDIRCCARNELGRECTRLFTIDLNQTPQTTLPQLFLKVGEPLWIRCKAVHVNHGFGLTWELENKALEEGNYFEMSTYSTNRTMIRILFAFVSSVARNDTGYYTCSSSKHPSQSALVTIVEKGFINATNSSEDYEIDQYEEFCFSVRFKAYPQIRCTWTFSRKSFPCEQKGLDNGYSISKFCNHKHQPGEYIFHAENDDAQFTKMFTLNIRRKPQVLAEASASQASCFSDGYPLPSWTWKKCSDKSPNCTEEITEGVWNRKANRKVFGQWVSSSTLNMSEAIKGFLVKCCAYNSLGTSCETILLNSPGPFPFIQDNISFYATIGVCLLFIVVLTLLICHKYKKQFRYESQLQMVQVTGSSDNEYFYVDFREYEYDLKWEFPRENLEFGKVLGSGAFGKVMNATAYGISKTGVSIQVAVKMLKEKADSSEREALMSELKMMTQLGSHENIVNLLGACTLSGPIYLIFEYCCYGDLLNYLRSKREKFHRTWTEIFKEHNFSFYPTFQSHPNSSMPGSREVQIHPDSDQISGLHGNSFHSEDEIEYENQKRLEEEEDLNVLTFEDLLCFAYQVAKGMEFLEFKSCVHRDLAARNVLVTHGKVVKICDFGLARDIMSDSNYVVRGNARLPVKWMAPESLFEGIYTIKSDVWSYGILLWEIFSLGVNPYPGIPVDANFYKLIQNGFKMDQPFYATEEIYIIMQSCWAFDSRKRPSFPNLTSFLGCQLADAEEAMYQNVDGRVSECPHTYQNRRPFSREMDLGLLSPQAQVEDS
How it was run: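 AlphaScreen, biotinylated poly(Glu4-Tyr) 30 nM final; PY20 anti-pTyr acceptor and streptavidin donor beads 10 μg/mL; IC50 final conc. 10 μM (FLT3-D835Y, FLT3-ITD) / 100 μM (c-KIT); detection incubations 20 + 60 min RT; 580 nm emission.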

[1] = system: MOLM-14 F691L cells, FLT3 ITD and FLT3 F691L; assay: Cell proliferation assay (CellTiter-Glo), MOLM-14 F691L; format: cell-based; conditions: Homo sapiens, 72 h, 3d-Growth, GMean
How it was run: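 Three-day growth at 37 °C, 5% CO2 under compound (1 μM top final, 1:3 dilutions, eight points, 0.2% DMSO), read as ATP luminescence by CellTiter-Glo for IC50. Cells: MOLM-14 with FLT3 ITD plus D835Y or F691L, and IL-3-deprived Ba/F3 transfected with FLT3 ITD/D835Y, 1×10^4 per well.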

| Compound | IC50 (FLT3-ITD) [µM] | IC50 [1] [µM] |
| --- | --- | --- |
| O=C(Nc1cccc(-c2cnc3[nH]c(-c4ccccc4)cc3c2)n1)C1CNC1 [Compound P-0084, N-[6-(2-phenyl-1H-pyrrolo[2,3-b]pyridin-5-yl)-2-pyridyl]azetidine-3-carboxamide] | 0.0001 to 10 | 0.0001 to 10 |
| O=C(c1cccc(-c2cnc3[nH]c(-c4ccccc4)cc3c2)n1)N1CCC(NC2CC2)C1 (stereo not drawn) [Compound P-0085, [3-(cyclopropylamino)pyrrolidin-1-yl]-[6-(2-phenyl-1H-pyrrolo[2,3-b]pyridin-5-yl)-2-pyridyl]methanone] | 0.0001 to 10 | 0.0001 to 10 |
| O=S(=O)(NC1CCNCC1)c1cccc(-c2cnc3[nH]c(-c4ccccc4)cc3c2)n1 [Compound P-0086, 6-(2-phenyl-1H-pyrrolo[2,3-b]pyridin-5-yl)-N-(4-piperidyl)pyridine-2-sulfonamide] | 0.0001 to 10 | 0.0001 to 10 |
| NC1CCC(NS(=O)(=O)c2cccc(-c3cnc4[nH]c(-c5ccccc5)cc4c3)n2)CC1 (stereo not drawn) [Compound P-0088, N-(4-aminocyclohexyl)-6-(2-phenyl-1H-pyrrolo[2,3-b]pyridin-5-yl)pyridine-2-sulfonamide] | 0.0001 to 10 | 0.0001 to 10 |
| N#CC1CCN(C(=O)c2cccc(-c3cnc4[nH]c(-c5ccc(F)cc5)cc4c3)n2)C1 (stereo not drawn) [Compound P-0116, 1-[6-[2-(4-fluorophenyl)-1H-pyrrolo[2,3-b]pyridin-5-yl]pyridine-2-carbonyl]pyrrolidine-3-carbonitrile] | 0.0001 to 10 | 0.0001 to 10 |
| CC(C)(C#N)NC(=O)c1cccc(-c2cnc3[nH]c(-c4cscn4)cc3c2)n1 [Compound P-0167, N-(1-cyano-1-methyl-ethyl)-6-(2-thiazol-4-yl-1H-pyrrolo[2,3-b]pyridin-5-yl)pyridine-2-carboxamide] | 0.0001 to 10 | 0.0001 to 10 |
| CC(C)(C#N)NC(=O)c1cccc(-c2cnc3[nH]c(-c4cnn(C(=O)C5CC5)c4)cc3c2)n1 [Compound P-0184, N-(1-cyano-1-methyl-ethyl)-6-[2-[1-(cyclopropanecarbonyl)pyrazol-4-yl]-1H-pyrrolo[2,3-b]pyridin-5-yl]pyridine-2-carboxamide] | 0.0001 to 10 | 0.0001 to 10 |
| CC(C)(C#N)NC(=O)c1cccc(-c2cnc3[nH]c(-c4cnn(C(F)F)c4)c(Cl)c3c2)n1 [Compound P-0185, 6-[3-chloro-2-[1-(difluoromethyl)pyrazol-4-yl]-1H-pyrrolo[2,3-b]pyridin-5-yl]-N-(1-cyano-1-methyl-ethyl)pyridine-2-carboxamide] | 0.0001 to 10 | 0.0001 to 10 |
| CC(C)(C#N)NC(=O)c1cccc(-c2cnc3[nH]c(C4=CCS(=O)(=O)CC4)cc3c2)n1 [Compound P-0186, N-(1-cyano-1-methyl-ethyl)-6-[2-(1,1-dioxo-3,6-dihydro-2H-thiopyran-4-yl)-1H-pyrrolo[2,3-b]pyridin-5-yl]pyridine-2-carboxamide] | 0.0001 to 10 | 0.0001 to 10 |
| CC(C)Oc1ccc(-c2cc3cc(-c4cccc(C(=O)NC(C)(C)C#N)n4)cnc3[nH]2)cn1 [Compound P-0190, N-(1-cyano-1-methyl-ethyl)-6-[2-(6-isopropoxy-3-pyridyl)-1H-pyrrolo[2,3-b]pyridin-5-yl]pyridine-2-carboxamide] | 0.0001 to 10 | 0.0001 to 10 |
| CC(C)Oc1ncc(-c2cc3cc(-c4cccc(C(=O)NC(C)(C)C#N)n4)cnc3[nH]2)cn1 [Compound P-0191, N-(1-cyano-1-methyl-ethyl)-6-[2-(2-isopropoxypyrimidin-5-yl)-1H-pyrrolo[2,3-b]pyridin-5-yl]pyridine-2-carboxamide] | 0.0001 to 10 | 0.0001 to 10 |
| Cc1nn(C(C)C)cc1-c1[nH]c2ncc(-c3cccc(C(=O)NC(C)(C)C#N)n3)cc2c1Cl [Compound P-0192] | 0.0001 to 10 | 0.0001 to 10 |
| CC(C)(C#N)NC(=O)c1cccc(-c2cnc3[nH]c(-c4cnn(CC(F)(F)F)c4)cc3c2)n1 [Compound P-0193, N-(1-cyano-1-methyl-ethyl)-6-[2-[1-(2,2,2-trifluoroethyl)pyrazol-4-yl]-1H-pyrrolo[2,3-b]pyridin-5-yl]pyridine-2-carboxamide] | 0.0001 to 10 | 0.0001 to 10 |
| CC(C)(C#N)NC(=O)c1cccc(-c2cnc3[nH]c(-c4ccc(C5(C#N)CC5)cc4)cc3c2)n1 [Compound P-0194, 6-[2-[4-(1-cyanocyclopropyl)phenyl]-1H-pyrrolo[2,3-b]pyridin-5-yl]-N-(1-cyano-1-methyl-ethyl)pyridine-2-carboxamide] | 0.0001 to 10 | 0.0001 to 10 |
| CC(C)(C#N)NC(=O)c1cccc(-c2cnc3[nH]c(-c4cncnc4)cc3c2)n1 [Compound P-0195, N-(1-cyano-1-methyl-ethyl)-6-(2-pyrimidin-5-yl-1H-pyrrolo[2,3-b]pyridin-5-yl)pyridine-2-carboxamide] | 0.0001 to 10 | 0.0001 to 10 |
| COc1ncc(-c2cc3cc(-c4cccc(C(=O)NC(C)(C)C#N)n4)cnc3[nH]2)cn1 [Compound P-0196, N-(1-cyano-1-methyl-ethyl)-6-[2-(2-methoxypyrimidin-5-yl)-1H-pyrrolo[2,3-b]pyridin-5-yl]pyridine-2-carboxamide] | 0.0001 to 10 | 0.0001 to 10 |
| CC(C)(C#N)NC(=O)c1cccc(-c2cnc3[nH]c(-c4ccc(N5CCOCC5)nc4)cc3c2)n1 [Compound P-0197, N-(1-cyano-1-methyl-ethyl)-6-[2-(6-morpholino-3-pyridyl)-1H-pyrrolo[2,3-b]pyridin-5-yl]pyridine-2-carboxamide] | 0.0001 to 10 | 0.0001 to 10 |
| CC(C)(C#N)NC(=O)c1cccc(-c2cnc3[nH]c(-c4ccc(C(F)(F)F)nc4)cc3c2)n1 [Compound P-0201, N-(1-cyano-1-methyl-ethyl)-6-[2-[6-(trifluoromethyl)-3-pyridyl]-1H-pyrrolo[2,3-b]pyridin-5-yl]pyridine-2-carboxamide] | 0.0001 to 10 | 0.0001 to 10 |
| CCOc1ncc(-c2cc3cc(-c4cccc(C(=O)NC(C)(C)C#N)n4)cnc3[nH]2)cn1 [Compound P-0203, N-(1-cyano-1-methyl-ethyl)-6-[2-(2-ethoxypyrimidin-5-yl)-1H-pyrrolo[2,3-b]pyridin-5-yl]pyridine-2-carboxamide] | 0.0001 to 10 | 0.0001 to 10 |
| CC(C)(C#N)NC(=O)c1cccc(-c2cnc3[nH]c(-c4cnc(C(F)(F)F)nc4)cc3c2)n1 [Compound P-0204, N-(1-cyano-1-methyl-ethyl)-6-[2-[2-(trifluoromethyl)pyrimidin-5-yl]-1H-pyrrolo[2,3-b]pyridin-5-yl]pyridine-2-carboxamide] | 0.0001 to 10 | 0.0001 to 10 |
| CCc1ncc(-c2cc3cc(-c4cccc(C(=O)NC(C)(C)C#N)n4)cnc3[nH]2)cn1 [Compound P-0205, N-(1-cyano-1-methyl-ethyl)-6-[2-(2-ethylpyrimidin-5-yl)-1H-pyrrolo[2,3-b]pyridin-5-yl]pyridine-2-carboxamide] | 0.0001 to 10 | 0.0001 to 10 |
| CCCOc1ncc(-c2cc3cc(-c4cccc(C(=O)NC(C)(C)C#N)n4)cnc3[nH]2)cn1 [Compound P-0206, N-(1-cyano-1-methyl-ethyl)-6-[2-(2-propoxypyrimidin-5-yl)-1H-pyrrolo[2,3-b]pyridin-5-yl]pyridine-2-carboxamide] | 0.0001 to 10 | 0.0001 to 10 |
| CC(C)(C#N)NC(=O)c1cccc(-c2cnc3[nH]c(-c4ccc(F)nc4)cc3c2)n1 [Compound P-0208, N-(1-cyano-1-methyl-ethyl)-6-[2-(6-fluoro-3-pyridyl)-1H-pyrrolo[2,3-b]pyridin-5-yl]pyridine-2-carboxamide] | 0.0001 to 10 | 0.0001 to 10 |
| CC(C)(C#N)NC(=O)c1cccc(-c2cnc3[nH]c(-c4cnc(C(C)(C)O)nc4)cc3c2)n1 [Compound P-0211, N-(1-cyano-1-methyl-ethyl)-6-[2-[2-(1-hydroxy-1-methyl-ethyl)pyrimidin-5-yl]-1H-pyrrolo[2,3-b]pyridin-5-yl]pyridine-2-carboxamide] | 0.0001 to 10 | 0.0001 to 10 |
